Results from patent US8512964B2, “Targets for treatment of hypercholesterolemia” (The Regents of the University of California, priority 2008, dated 2013).
Residues, ends and D or L forms follow the SMILES beside them. *: point of attachment. Cbz = O=C(OCc1ccccc1)*

Key:
LDLR [1] = assay: Immunoblot of LDLR protein in immortalized Lxrαβ(−/−) MEFs stably expressing LXRα or vector control; format: cell-based, mouse; conditions: Lxrαβ(−/−) MEFs with LXRα or vector control, sterol depletion medium, FIG. 1E
Procedure: The cell lines HEK293T, HepG2, and SV589 were obtained from ATCC. HEK293T were cultured in Optimem containing 2% FBS. HepG2 and SV589 were cultured in DMEM supplemented with 10% FBS. immortalized Lxrαβ^(−/−) mouse embryonic fibroblasts (MEFs) were obtained by immortalizing E13.5 MEFs with a SV40 Large-T antigen retrovirus. To reconstitute mLxrα we transfected Phenix cells with pBabehygro or pBabehygro-mLxra. The resulting supernatant containing the corresponding retroviral particles was used to infect immortalized MEFs. Cells were selected in 800 μg/mL Hygromycin and surviving cells were used. HepG2-LDLR-GFP cells were generated by transfecting HepG2 cells with pEGFP-N1-LDLR and selecting cells with G418 (800 μg/mL).
Primary hepatocytes were isolated and maintained as previously reported (Pei et al. (2006) Nat Med 12: 1048). HEK293T cells were transfected using lipofectamine2000 (invitrogen). […] Under these conditions more than 90% of the cells were transduced as assessed by GFP immunofluorescence. […]
(§1) Total cell or tissue lysates were prepared in RIPA buffer (150 mM NaCl, 1% NP-40, 0.1% Sodium Deoxycholate, 0.1% SDS, 100 mM Tris-HCl, pH 7.4) supplemented with protease inhibitors (Roche Molecular Biochemicals). […] Protein concentration of the cleared lysates was determined using the Bradford assay (Biorad) with BSA as reference. […]

HepG2 cells = assay: BODIPY-LDL binding and uptake assay in HepG2 cells; format: cell-based; conditions: 1 μM ligand, FIG. 1A
Procedure: HepG2 cells were plated at density of 40,000 cells/well. On the following day the cells were pre-treated for 8 hrs with DMSO, 1 μM GW3965, or 1 μM T0901317 in DMEM supplemented with 10% FBS. MEFs (DKO-mLxra) were plated similarly and infected on the following day with the indicated adenovirus (MOI 300) for 18 hrs. Subsequently, cells were washed twice with PBS and incubated for an additional 16 hrs in sterol deficient medium to induce expression of the LDLR. In experiments with HepG2 cells the sterol deficient medium further contained the LXR synthetic ligands indicated above. Uptake was initiated by incubating cells in 200 μl of serum deficient medium containing 5 μg/mL of BODIPY-LDL. For measuring binding of BODIPY-LDL to cells, plates were placed on ice prior to processing. Uptake of BODIPY-LDL was measured after a 30 minute incubation period at 37° C. At that point cells were washed 2× with PBS containing 0.2% BSA and lysed in 100 μl RIPA buffer supplemented with protease inhibitors. Lysates were collected and cleared by centrifugation and 30 μl of cleared lysate was transferred into a 384 well plate and measured on a Typhoon apparatus (Amersham) with filters set for BODIPY. The protein concentration of the cleared lysates was determined and results are presented as relative fluorescence normalized for protein content.

Mylip = Mylip expression in vivo after gavage of mice (realtime PCR); set-up: species or system mouse; conditions: mice gavaged 20 mg/kg twice daily for three days, FIG. 2C
Procedure: Total RNA was isolated from cells and mouse tissues using Trizol (Invitrogen). One microgram of total RNA was reverse transcribed with random hexamers using iScript reverse transcription reagents kit (Biorad). Sybergreen (Diagenode) real-time quantitative PCR assays were performed using an Applied Biosystems 7900HT sequence detector.

Mylip LXRE = assay: Mylip promoter (LXRE) reporter assay in HEK293 cells transfected with LXR and RXR; format: cell-based, mouse; conditions: activation by LXRa and GW3965, functional LXRE, FIG. 6D
Procedure: A 10 Kb promotor region upstream of the mMylip transcription initiation site was analyzed for the presence of LXR binding elements. A consensus DR4 site was identified 2454 upstream of the transcription initiation site. Olignoucleotides encompassing this element were designed, annealed and tested for binding to LXR/RXR heterodimers in a standard EMSA assay. A 2.5 kB promotor fragment upstream of the transcription initiation site containing the identified LXRE was amplified by PCR from BAC clone RP23-17N24 using mMylip-prom-FWD […] (SEQ ID NO:20) or mMylip-prom-ΔFWD […] (SEQ ID NO:21) with the common antisense primer mMylip-prom-REV […] (SEQ ID NO:22). Amplified fragments were cloned as SacI/XhoI fragments into pGL3 basic (Promega). Promotor analysis was done as previously described (Joseph et al. (2002) J Biol Chem 277: 11019).

LDLR [2] = assay: LDLR ubiquitination in HEK293 cells co-transfected with LDLR, Mylip and HA-Ubiquitin; format: cell-based; conditions: 25 μM for 6 h, FIG. 3G
Procedure: Primary hepatocytes were isolated and maintained as previously reported (Pei et al. (2006) Nat Med 12: 1048). HEK293T cells were transfected using lipofectamine2000 (invitrogen). Typically, 0.8×10^6 cells were seeded in a 60 mm well and transfected the following day with 2 μg DNA. In experiments testing the ability of Mylip to degrade other potential protein targets a ratio of 3:1 (Mylip:target) was used. To infect MEFs and SV589 with adenovirus cells were seeded (0.2×10^6 cells/60 mm well) and infected the following day at an MOI of 300. HepG2 cells were infected at an MOI of 80. Primary hepatocytes were infected 4 hrs after plating at an MOI of 20. Infections were allowed to proceed for 18 hrs after which culture medium was replaced. Under these conditions more than 90% of the cells were transduced as assessed by GFP immunofluorescence. Where indicated, cells were subsequently sterol starved by incubating cells in DMEM supplemented with 10% LPDS, 5 μM Simvastatin, and 100 μM Mevalonic acid for an additional 18 hrs (sterol deficient medium).
as §1

Row | Structure (SMILES) | LDLR protein (LDLR [1]) | binding and uptake of bodipy labeled-LDL (HepG2 cells) | other results
1 | CC(C)CC[C@@H](O)[C@@H](C)[C@H]1CC[C@H]2[C@@H]3CC=C4C[C@@H](O)CC[C@]4(C)[C@H]3CC[C@]12C [22(R)-hydroxycholesterol] | decreased LDLR protein in the absence or presence of LXRs | – | –
2 | O=C(O)Cc1cccc(OCCCN(Cc2cccc(C(F)(F)F)c2Cl)CC(c2ccccc2)c2ccccc2)c1 [GW3965] | decreased LDLR only in cells expressing LXRα | decreased | Mylip expression in vivo (Mylip): induced; increase in reporter activity (Mylip LXRE): ~4 fold
3 | CC(C)C[C@@H](C=O)NC(=O)[C@H](CC(C)C)NC(=O)[C@H](CC(C)C)NC(=O)OCc1ccccc1 [MG132] (Cbz-Leu-Leu-Leu-aldehyde) | – | – | Mylip expression (LDLR [2]): greatly stabilizing; Mylip-dependent level of LDLR ubiquitination (LDLR [2]): did not increase
4 | O=S(=O)(c1ccccc1)N(CC(F)(F)F)c1ccc(C(O)(C(F)(F)F)C(F)(F)F)cc1 [T0901317] | – | decreased | –
